According to patent US7276532B2, “Remedies for vesical hyperactivity” (Kyowa Hakko Kogyo Co., Ltd., priority 2001, dated 2007):

Key:
spinal cord-injured rats = assay: Inhibitory activity on detrusor hyperreflexia (cystometry test); type: in vivo, rat; details: average ± standard error
Procedure: The experiment was carried out according to the method of Cheng, et al. [Brain Res., Vol. 678, pp. 40-48 (1995)].
(§1) Female SD rats of 8 to 10 weeks of age (supplied by Japan SLC) were used in the test. Five to seven animals of these rats were put in each metal cage and reared by allowing them to freely take commercially available chow and water, in an animal room at room temperature between 19 and 25° C. and humidity between 30 and 70% under illumination for 12 hours (from 7:00 a.m. to 7:00 p.m.) per day.
An operation of spinal cord injury was performed in the rats. Each animal was anesthetized with diethyl ether and the skin of the back side thoracic cord part was incised. A laminectomy at the 7th to 8th thoracic vertebrae level was performed. Then, the thoracic cord at the T7-T8 segments was macroscopically cut and a section of spinal cord (about 5 mm) was removed, and the wound cavity of the removed part was filled with oxidized regenerated cellulose for hemostasis. The incised part was sutured with a surgical silk. After the spinal cord injury operation, urine was expressed manually twice per day (at 8:00-9:00 and 18:00-19:00) for about 3 weeks until autonomic micturition developed. An antibiotic (ampicillin, Sigma. Chemical Co.) was intramuscularly administered to the animals at a dose of 150 mg/kg once to twice per day for about 2 weeks.
(§2) Four to five weeks after the spinal cord injury, the rats were subjected to bladder catheterization. Under diethyl ether anesthesia, the bladder was exposed by midline incision of the abdomen. […] The bladder catheter was fixed with a surgical silk ligature and indwelled. The other end of the catheter was exposed subcutaneously from the back of the neck, plugged and then fixed to the skin with a surgical thread.
Four to six days after the bladder catheterization, a cystometry test was performed. The rats were put in a Bollman cage (Natsume Seisakusho Co., Ltd.) and a three-way cock was connected to the bladder catheter, one end of the cock was connected to a pressure transducer (Nihon Kohden Corp.) and the other end was connected to a 50-mL syringe (Terumo Corp.) arranged to an infusion pump (Harvard Apparatus, Inc.) for physiological saline infusion. The intravesical pressure signal from the pressure transducer was amplified with a strain pressure amplifier (AP-601G, Nihon Kohden Corp.) connected thereto, and was recorded on a thermal array recorder (RTA-1200, Nihon Kohden Corp.) via a polygraph system (RMP-6008, Nihon Kohden Corp.) containing the above amplifier. Sixty to ninety minutes after the completion of the preparation for the measurement, a room temperature physiological saline was infused into the bladder at a flow rate of 10 mL/h for 30 minutes, the occurence of micturition contractions was confirmed. Thirty minutes later, the infusion of physiological saline was carried out again for 30 minutes, and the intravesical pressure was measured to be used as the pre-administration value. Each of Compounds 1 to 6 was suspended in a 0.5 w/v % aqueous solution of methylcellulose at a concentration of 1 mg/mL suspension. The suspension was further diluted with a 0.5 w/v % aqueous solution of methylcellulose to prepare a suspension or solution for the administration at the intended concentration, which was then orally administered to the animals at a volume of 1 mL/kg. The period of 1, 3 and 5 hours after the dosing was used as the measuring time after the administration of the solvent or a compound tested, and the intravesical infusion of a physiological saline was carried out during a duration of 15 minutes around each measuring time (i.e. from 45 to 75 minutes, from 165 to 195 minutes and from 285 to 315 minutes after the administration of the compound).
Micturition contraction was measured as an index of the voiding function and pre-micturition contraction was measured as an index of detrusor hyperreflexia. […]

dd male mice = assay: Acute toxicity test; type: in vivo; details: oral administration, mortality on the seventh day after administration
Procedure: The test compound was administered orally or intraperitoneally to 3 animals per group of dd male mice (body weight: 20±1 g). The minimum lethal dose (MLD) value was obtained by observing mortality on the seventh day after the administration calculated.

[1] = tested on: rats with bladder hypertrophy; assay: Inhibitory activity on detrusor instability (cystometry test after partial urethral obstruction); type: in vivo, rat; details: average ± standard error
Procedure: The experiment was carried out according to the method of Malmgren, et al. [J. Urol., Vol. 142, pp. 1134-1138 (1989)].
as §1, with “(7:00 a.m.-7:00” for “(from 7:00 a.m. to 7:00”
The rats were subjected to operation of partial urethral obstruction. Each animal was anesthetized by intraperitoneal administration of 50 mg/kg pentobarbital sodium (Dainippon Pharmaceutical Co., Ltd.), and the midline incision of the skin and muscle was made in the lower abdomen. A polyethylene tube (PE-20, Nippon Becton Dickinson Co., Ltd.) was inserted into urethra from the urethral to the bladder neck. After the proximal urethra was peeled and double-ligated, the polyethylene tube was pulled out to cause partial urethral obstruction. The incised part was-sutured with a surgical silk thread. An antibiotic (ampicillin, Sigma Chemical Co.) was intramusclarly administered to the animals at a dose of 150 mg/kg.
as §2, with “Six” for “Four to five”, “operation of the partial urethral obstruction,” for “spinal cord injury,”, “rats with bladder hypertrophy” for “rats”, “anesthesia with pentobarbital sodium,” for “diethyl ether anesthesia,”
Four to six days after the bladder catheterization, a cystometry test was performed. The rats were put in a Bollman cage (Natsume Seisakusho Co., Ltd.) and a three-way cock was connected to the bladder catheter, one end of the cock was connected to a pressure transducer (Nihon Kohden Corp.) and the other end was connected to a 50-mL syringe (Terumo Corp.) arranged to an infusion pump (Harvard Apparatus, Inc.) for physiological saline infusion. The intravesical pressure signal from the pressure transducer was amplified with a strain pressure amplifier (AP-601G, Nihon Kohden Corp.) connected thereto, and was recorded on a thermal array recorder (RTA-1200, Nihon Kohden Corp.) via a polygraph system (RMP-6008, Nihon Kohden Corp.) containing the above amplifier. Sixty to ninety minutes after the completion of the preparation for the measurement, intravesical infusion of a room temperature physiological saline at a flow rate of 10 mL/h was started and continued until the completion of the test, and the occurrence of micturition contractions and pre-micturition contractions were confirmed. The chart for 30 minutes after 3 hours from the commencement of the saline infusion was used as the values before the drug administration. Each of Compounds 1 to 3 was suspended in a 0.5 w/v % aqueous solution of methylcellulose at a concentration of 1 mg/mL. The suspension was further diluted with a 0.5 w/v % aqueous solution of methylcellulose to prepare a suspension or solution for the administration at the intended concentration. This was then orally administered to the animals at a volume of 1 mL/kg. The period of 1, 3 and 5 hours after the dosing was used as the measuring time after the administration of the solvent or a compound tested, and a duration of 15 minutes around each measuring time (45 to 75 minutes, 165 to 195 minutes and 285 to 315 minutes after the administration of the compound) was used as the measuring period.
Micturition contraction was used as an index of the voiding function and pre-micturition contraction was measure as an index of detrusor instability. […]

## C[C@](O)(C(=O)Nc1cccc2c1C(=O)c1sccc1CS2(=O)=O)C(F)(F)F [Compound 1]
Spinal cord-injured rats; 0.001 mg/kg p.o., after 1 hr.
  micturition contractions (relative value, before administration = 100): 106.5 ± 11.3%
  pre-micturition contractions (relative value, before administration = 100): 83.5 ± 6.8%
Spinal cord-injured rats; 0.001 mg/kg p.o., after 3 hrs.
  micturition contractions (relative value, before administration = 100): 101.7 ± 9.5%
  pre-micturition contractions (relative value, before administration = 100): 95.4 ± 12.0%
Spinal cord-injured rats; 0.001 mg/kg p.o., after 5 hrs.
  micturition contractions (relative value, before administration = 100): 103.1 ± 6.5%
  pre-micturition contractions (relative value, before administration = 100): 105.5 ± 20.8%
Spinal cord-injured rats; 0.01 mg/kg p.o., after 1 hr.
  micturition contractions (relative value, before administration = 100): 114.4 ± 9.5%
  pre-micturition contractions (relative value, before administration = 100): 59.6 ± 8.1 %
Spinal cord-injured rats; 0.01 mg/kg p.o., after 3 hrs.
  micturition contractions (relative value, before administration = 100): 117.6 ± 13.9%
  pre-micturition contractions (relative value, before administration = 100): 51.2 ± 6.7 %
Spinal cord-injured rats; 0.01 mg/kg p.o., after 5 hrs.
  micturition contractions (relative value, before administration = 100): 117.6 ± 12.7%
  pre-micturition contractions (relative value, before administration = 100): 42.2 ± 7.2 %
Spinal cord-injured rats; 0.1 mg/kg p.o., after 1 hr.
  micturition contractions (relative value, before administration = 100): 109.3 ± 6.3%
  pre-micturition contractions (relative value, before administration = 100): 52.3 ± 9.1 %
Spinal cord-injured rats; 0.1 mg/kg p.o., after 3 hrs.
  micturition contractions (relative value, before administration = 100): 110.2 ± 5.4%
  pre-micturition contractions (relative value, before administration = 100): 33.3 ± 6.3 %
Spinal cord-injured rats; 0.1 mg/kg p.o., after 5 hrs.
  micturition contractions (relative value, before administration = 100): 112.4 ± 7.0%
  pre-micturition contractions (relative value, before administration = 100): 28.5 ± 6.2 %
Dd male mice
  minimum lethal dose (MLD): > 1000 mg/kg
[1]; 0.001 mg/kg p.o., after 1 hr.
  micturition contractions (relative value, before administration = 100): 99.3 ± 2.3%
  pre-micturition contractions (relative value, before administration = 100): 105.9 ± 7.8%
[1]; 0.001 mg/kg p.o., after 3 hrs.
  micturition contractions (relative value, before administration = 100): 101.5 ± 3.3%
  pre-micturition contractions (relative value, before administration = 100): 100.3 ± 10.0%
[1]; 0.001 mg/kg p.o., after 5 hrs.
  micturition contractions (relative value, before administration = 100): 98.7 ± 5.2%
  pre-micturition contractions (relative value, before administration = 100): 104.2 ± 10.2%
[1]; 0.01 mg/kg p.o., after 1 hr.
  micturition contractions (relative value, before administration = 100): 99.6 ± 1.2%
  pre-micturition contractions (relative value, before administration = 100): 59.5 ± 4.1 %
[1]; 0.01 mg/kg p.o., after 3 hrs.
  micturition contractions (relative value, before administration = 100): 92.6 ± 3.2%
  pre-micturition contractions (relative value, before administration = 100): 69.5 ± 4.4 %
[1]; 0.01 mg/kg p.o., after 5 hrs.
  micturition contractions (relative value, before administration = 100): 90.1 ± 4.3%
  pre-micturition contractions (relative value, before administration = 100): 67.8 ± 5.5 %
[1]; 0.1 mg/kg p.o., after 1 hr.
  micturition contractions (relative value, before administration = 100): 106.2 ± 9.2%
  pre-micturition contractions (relative value, before administration = 100): 55.8 ± 8.2 %
[1]; 0.1 mg/kg p.o., after 3 hrs.
  micturition contractions (relative value, before administration = 100): 105.2 ± 9.6%
  pre-micturition contractions (relative value, before administration = 100): 66.2 ± 4.7 %
[1]; 0.1 mg/kg p.o., after 5 hrs.
  micturition contractions (relative value, before administration = 100): 100.1 ± 8.6%
  pre-micturition contractions (relative value, before administration = 100): 69.2 ± 7.4 %
